Test results published in publication PMC3353862.
In brackets after ≈: the same amount, converted by molar mass.

Test system: bacterial protein synthesis (aminoacylation/translation system)
Experiment: aminoacylation/translation (A/T) assay
Assay type: biochemical
Conditions: A/T assay, Table 1; read-out: IC50

First: CCOc1ccc(CN2CCc3nc(-c4ccccn4)[nH]c(=O)c3C2)cc1Cn1ccnc1 [Compound 323239]
Second: O=c1[nH]c(-c2cnccn2)nc2c1CN(Cc1ccc(Cl)cc1)CC2 [Compound 323354]
The IC50 of the first is 7.2-fold lower: 3 µM for the first, 21.6 µM for the second.

`O=C(c1ccc(Cl)cc1)N1CCc2nc(-c3ccccn3)[nH]c(=O)c2C1` [Compound 323353] and `O=C(Cc1ccc(Cl)cc1)N1CCc2nc(-c3ccccn3)[nH]c(=O)c2C1` [Compound 323369] are within 1.5-fold of each other in IC50: 1.7 µM for the first, 2.01 µM for the second.

First: Clc1ccc(CN2CCc3nc(-c4ccccn4)ncc3C2)cc1 [Compound 323355]
Second: O=c1nc(-c2ccccn2)nc2ccn(Cc3ccc(Cl)cc3)cc1-2 [Compound 332055]
The IC50 of the first is 2-fold higher: 32.1 µM for the first, 16.4 µM for the second. The second is the more potent here.

In the case of `O=c1[nH]c(-c2cccs2)nc2c1CN(Cc1ccc(Cl)cc1)CC2` [Compound 332057], the IC50 is reported as 101 µM.

Same assay, conditions: relative to 321521

With `O=c1[nH]c(-c2cnccn2)nc2c1CN(Cc1ccc(Cl)cc1)CC2` [Compound 323354] the “fold reduction of potency/biochemical activity in the A/T assay” value was “tenfold”.
For `O=c1[nH]c(-c2cccs2)nc2c1CN(Cc1ccc(Cl)cc1)CC2` [Compound 332057], the “fold reduction of potency/biochemical activity in the A/T assay” value was “over 40 fold”.

Test system: E. faecalis
Experiment: Broth microdilution MIC testing
Assay type: cell-based, Enterococcus faecalis
Conditions: E. faecalis

In the case of `CCOc1ccc(CN2CCc3nc(-c4ccccn4)[nH]c(=O)c3C2)cc1Cn1ccnc1` [Compound 323239], the “MIC E. fae” value is reported as 64 µg/mL (≈ 145 µM).

Same assay, conditions: Enterococcus faecalis, read-out: MIC E. fae

First: O=C(c1ccc(Cl)cc1)N1CCc2nc(-c3ccccn3)[nH]c(=O)c2C1 [Compound 323353]
Second: O=C(Cc1ccc(Cl)cc1)N1CCc2nc(-c3ccccn3)[nH]c(=O)c2C1 [Compound 323369]
The MIC of the first is higher: greater than 128 µg/mL for the first, 64 µg/mL (≈ 168 µM) for the second.

`O=c1[nH]c(-c2cnccn2)nc2c1CN(Cc1ccc(Cl)cc1)CC2` [Compound 323354] and `O=c1[nH]c(-c2cccs2)nc2c1CN(Cc1ccc(Cl)cc1)CC2` [Compound 332057] cannot be ordered by MIC: greater than 128 µg/mL for the first, greater than 128 µg/mL for the second.

Compared with `Clc1ccc(CN2CCc3nc(-c4ccccn4)ncc3C2)cc1` [Compound 323355], `O=c1nc(-c2ccccn2)nc2ccn(Cc3ccc(Cl)cc3)cc1-2` [Compound 332055] is lower in MIC: greater than 128 µg/mL for the first, 64 µg/mL (≈ 183 µM) for the second.

Test system: M. catarrhalis
Experiment: Broth microdilution MIC testing
Assay type: cell-based, Moraxella catarrhalis
Conditions: not given

In the case of `CCOc1ccc(CN2CCc3nc(-c4ccccn4)[nH]c(=O)c3C2)cc1Cn1ccnc1` [Compound 323239], the “MIC M. cat” value is reported as 8 µg/mL (≈ 18.1 µM).

Same assay, conditions: Moraxella catarrhalis

First: O=C(c1ccc(Cl)cc1)N1CCc2nc(-c3ccccn3)[nH]c(=O)c2C1 [Compound 323353]
Second: O=C(Cc1ccc(Cl)cc1)N1CCc2nc(-c3ccccn3)[nH]c(=O)c2C1 [Compound 323369]
The MIC of the first is 2-fold higher: 8 µg/mL (≈ 21.8 µM) for the first, 4 µg/mL (≈ 10.5 µM) for the second.

Going from `O=c1[nH]c(-c2cnccn2)nc2c1CN(Cc1ccc(Cl)cc1)CC2` [Compound 323354] to `O=c1[nH]c(-c2cccs2)nc2c1CN(Cc1ccc(Cl)cc1)CC2` [Compound 332057], the MIC rises from 16 µg/mL (≈ 45.2 µM) to greater than 128 µg/mL.

Going from `Clc1ccc(CN2CCc3nc(-c4ccccn4)ncc3C2)cc1` [Compound 323355] to `O=c1nc(-c2ccccn2)nc2ccn(Cc3ccc(Cl)cc3)cc1-2` [Compound 332055], the MIC rises from 4 µg/mL (≈ 11.9 µM) to 32 µg/mL (≈ 91.7 µM) (8-fold).

Test system: H. influenzae
Experiment: Broth microdilution MIC testing
Assay type: cell-based, Haemophilus influenzae
Conditions: H. influenzae

In the case of `CCOc1ccc(CN2CCc3nc(-c4ccccn4)[nH]c(=O)c3C2)cc1Cn1ccnc1` [Compound 323239], the “MIC H. flu” value is reported as 64 µg/mL (≈ 145 µM).

Same assay, conditions: Haemophilus influenzae, read-out: MIC H. flu

First: O=C(c1ccc(Cl)cc1)N1CCc2nc(-c3ccccn3)[nH]c(=O)c2C1 [Compound 323353]
Second: O=C(Cc1ccc(Cl)cc1)N1CCc2nc(-c3ccccn3)[nH]c(=O)c2C1 [Compound 323369]
The MIC of the first is 2-fold higher: 32 µg/mL (≈ 87.2 µM) for the first, 16 µg/mL (≈ 42 µM) for the second.

`O=c1[nH]c(-c2cnccn2)nc2c1CN(Cc1ccc(Cl)cc1)CC2` [Compound 323354] and `O=c1[nH]c(-c2cccs2)nc2c1CN(Cc1ccc(Cl)cc1)CC2` [Compound 332057] cannot be ordered by MIC: greater than 128 µg/mL for the first, greater than 128 µg/mL for the second.

First: Clc1ccc(CN2CCc3nc(-c4ccccn4)ncc3C2)cc1 [Compound 323355]
Second: O=c1nc(-c2ccccn2)nc2ccn(Cc3ccc(Cl)cc3)cc1-2 [Compound 332055]
The MIC of the first is 4-fold higher: 64 µg/mL (≈ 190 µM) for the first, 16 µg/mL (≈ 45.9 µM) for the second.

Test system: S. pneumoniae
Experiment: Broth microdilution MIC testing
Assay type: cell-based, Streptococcus pneumoniae
Conditions: S. pneumoniae

`CCOc1ccc(CN2CCc3nc(-c4ccccn4)[nH]c(=O)c3C2)cc1Cn1ccnc1` [Compound 323239] was tested, and the “MIC S. pneumo” value was greater than 128 µg/mL.

Same assay, conditions: Streptococcus pneumoniae, read-out: MIC S. pneumo

Compared with `O=C(c1ccc(Cl)cc1)N1CCc2nc(-c3ccccn3)[nH]c(=O)c2C1` [Compound 323353], `O=C(Cc1ccc(Cl)cc1)N1CCc2nc(-c3ccccn3)[nH]c(=O)c2C1` [Compound 323369] is 2-fold lower in MIC: 128 µg/mL (≈ 349 µM) for the first, 64 µg/mL (≈ 168 µM) for the second.

`O=c1[nH]c(-c2cnccn2)nc2c1CN(Cc1ccc(Cl)cc1)CC2` [Compound 323354] and `O=c1[nH]c(-c2cccs2)nc2c1CN(Cc1ccc(Cl)cc1)CC2` [Compound 332057] cannot be ordered by MIC: greater than 128 µg/mL for the first, greater than 128 µg/mL for the second.

Compared with `Clc1ccc(CN2CCc3nc(-c4ccccn4)ncc3C2)cc1` [Compound 323355], `O=c1nc(-c2ccccn2)nc2ccn(Cc3ccc(Cl)cc3)cc1-2` [Compound 332055] is 2-fold higher in MIC: 64 µg/mL (≈ 190 µM) for the first, 128 µg/mL (≈ 367 µM) for the second.

Test system: S. aureus
Experiment: Broth microdilution MIC testing
Assay type: cell-based, Staphylococcus aureus
Conditions: S. aureus

With `CCOc1ccc(CN2CCc3nc(-c4ccccn4)[nH]c(=O)c3C2)cc1Cn1ccnc1` [Compound 323239] the “MIC S. aureus” value was greater than 128 µg/mL.

Same assay, conditions: Staphylococcus aureus, read-out: MIC S. aureus

Going from `O=C(c1ccc(Cl)cc1)N1CCc2nc(-c3ccccn3)[nH]c(=O)c2C1` [Compound 323353] to `O=C(Cc1ccc(Cl)cc1)N1CCc2nc(-c3ccccn3)[nH]c(=O)c2C1` [Compound 323369], the MIC falls from greater than 128 µg/mL to 128 µg/mL (≈ 336 µM).

`O=c1[nH]c(-c2cnccn2)nc2c1CN(Cc1ccc(Cl)cc1)CC2` [Compound 323354] and `O=c1[nH]c(-c2cccs2)nc2c1CN(Cc1ccc(Cl)cc1)CC2` [Compound 332057] cannot be ordered by MIC: greater than 128 µg/mL for the first, greater than 128 µg/mL for the second.

Compared with `Clc1ccc(CN2CCc3nc(-c4ccccn4)ncc3C2)cc1` [Compound 323355], `O=c1nc(-c2ccccn2)nc2ccn(Cc3ccc(Cl)cc3)cc1-2` [Compound 332055] is higher in MIC: 128 µg/mL (≈ 380 µM) for the first, greater than 128 µg/mL for the second.

Test system: E. coli tolC mutants
Experiment: Broth microdilution MIC testing
Assay type: cell-based, Escherichia coli
Conditions: E. coli tolC mutants

In the case of `CCOc1ccc(CN2CCc3nc(-c4ccccn4)[nH]c(=O)c3C2)cc1Cn1ccnc1` [Compound 323239], the “MIC E. coli tolC” value is reported as 64 µg/mL (≈ 145 µM).

Same assay, conditions: Escherichia coli, read-out: MIC E. coli tolC

Going from `O=C(c1ccc(Cl)cc1)N1CCc2nc(-c3ccccn3)[nH]c(=O)c2C1` [Compound 323353] to `O=C(Cc1ccc(Cl)cc1)N1CCc2nc(-c3ccccn3)[nH]c(=O)c2C1` [Compound 323369], the MIC falls from 128 µg/mL (≈ 349 µM) to 64 µg/mL (≈ 168 µM) (2-fold).

`O=c1[nH]c(-c2cnccn2)nc2c1CN(Cc1ccc(Cl)cc1)CC2` [Compound 323354] and `O=c1[nH]c(-c2cccs2)nc2c1CN(Cc1ccc(Cl)cc1)CC2` [Compound 332057] cannot be ordered by MIC: greater than 128 µg/mL for the first, greater than 128 µg/mL for the second.

First: Clc1ccc(CN2CCc3nc(-c4ccccn4)ncc3C2)cc1 [Compound 323355]
Second: O=c1nc(-c2ccccn2)nc2ccn(Cc3ccc(Cl)cc3)cc1-2 [Compound 332055]
The MIC of the first is 2-fold lower: 64 µg/mL (≈ 190 µM) for the first, 128 µg/mL (≈ 367 µM) for the second.

Test system: E. coli modified with PMBN
Experiment: Broth microdilution MIC testing
Assay type: cell-based, Escherichia coli
Conditions: E. coli modified with PMBN

With `CCOc1ccc(CN2CCc3nc(-c4ccccn4)[nH]c(=O)c3C2)cc1Cn1ccnc1` [Compound 323239] the “MIC E. coli +PMBP” value was 128 µg/mL (≈ 289 µM).

Same assay, conditions: Escherichia coli, read-out: MIC E. coli +PMBP

Going from `O=C(c1ccc(Cl)cc1)N1CCc2nc(-c3ccccn3)[nH]c(=O)c2C1` [Compound 323353] to `O=C(Cc1ccc(Cl)cc1)N1CCc2nc(-c3ccccn3)[nH]c(=O)c2C1` [Compound 323369], the MIC falls from 128 µg/mL (≈ 349 µM) to 32 µg/mL (≈ 84 µM) (4-fold).

`O=c1[nH]c(-c2cnccn2)nc2c1CN(Cc1ccc(Cl)cc1)CC2` [Compound 323354] and `O=c1[nH]c(-c2cccs2)nc2c1CN(Cc1ccc(Cl)cc1)CC2` [Compound 332057] cannot be ordered by MIC: greater than 128 µg/mL for the first, greater than 128 µg/mL for the second.

`Clc1ccc(CN2CCc3nc(-c4ccccn4)ncc3C2)cc1` [Compound 323355] and `O=c1nc(-c2ccccn2)nc2ccn(Cc3ccc(Cl)cc3)cc1-2` [Compound 332055] are the same in MIC: 64 µg/mL (≈ 190 µM) for the first, 64 µg/mL (≈ 183 µM) for the second.
